These results are taken from patent publication US12479847B2 (DANA-FARBER CANCER INSTITUTE, INC., priority 2019, dated 2025).

What all share (assay): KINOMEscan (ScanMAX) kinase profiling
Format in all cases: binding

For test [1], the target named is T1, panel of 468 kinases (Homo sapiens, UniProt O14578).
T1 construct: purchased KINOMEscan (ScanMAX) service
Conditions: CIT; 1 μM; read-out: % control.

The target in test [2] is T2, panel of 468 kinases (Homo sapiens, UniProt O43683).
T2 construct: purchased KINOMEscan (ScanMAX) service
Conditions: BUB1; 1 μM; read-out: % control.

Test [3] has as its target T3, panel of 468 kinases (Homo sapiens, UniProt O60285).
T3 construct: purchased KINOMEscan (ScanMAX) service
T3 sequence (O60285 1-661): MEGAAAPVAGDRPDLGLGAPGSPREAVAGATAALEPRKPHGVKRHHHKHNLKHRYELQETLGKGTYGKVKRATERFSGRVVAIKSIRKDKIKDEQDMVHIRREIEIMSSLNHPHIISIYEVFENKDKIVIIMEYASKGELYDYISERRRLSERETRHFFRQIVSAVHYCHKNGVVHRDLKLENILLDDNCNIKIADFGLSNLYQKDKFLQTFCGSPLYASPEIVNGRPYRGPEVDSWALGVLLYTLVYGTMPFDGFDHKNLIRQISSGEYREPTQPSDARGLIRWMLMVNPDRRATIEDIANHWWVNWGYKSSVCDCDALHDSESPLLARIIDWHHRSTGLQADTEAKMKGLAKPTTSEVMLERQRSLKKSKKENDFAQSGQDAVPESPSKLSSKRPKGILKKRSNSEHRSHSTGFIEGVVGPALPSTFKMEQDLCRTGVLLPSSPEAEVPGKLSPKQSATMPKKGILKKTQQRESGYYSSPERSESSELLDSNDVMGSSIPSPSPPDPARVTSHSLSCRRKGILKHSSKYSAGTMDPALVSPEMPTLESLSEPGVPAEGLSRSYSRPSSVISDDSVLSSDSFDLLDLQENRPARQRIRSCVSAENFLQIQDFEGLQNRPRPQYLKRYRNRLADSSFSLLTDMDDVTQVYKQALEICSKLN
Conditions: ARKS; 1 μM; read-out: % control.

Test [4] deals with T4, panel of 468 kinases (Homo sapiens, UniProt P17948).
T4 construct: purchased KINOMEscan (ScanMAX) service
Conditions: FLT1; 1 μM; read-out: % control.

Test [5] has as its target T5, panel of 468 kinases (Homo sapiens, UniProt P51956).
T5 construct: purchased KINOMEscan (ScanMAX) service
T5 sequence (P51956 1-506): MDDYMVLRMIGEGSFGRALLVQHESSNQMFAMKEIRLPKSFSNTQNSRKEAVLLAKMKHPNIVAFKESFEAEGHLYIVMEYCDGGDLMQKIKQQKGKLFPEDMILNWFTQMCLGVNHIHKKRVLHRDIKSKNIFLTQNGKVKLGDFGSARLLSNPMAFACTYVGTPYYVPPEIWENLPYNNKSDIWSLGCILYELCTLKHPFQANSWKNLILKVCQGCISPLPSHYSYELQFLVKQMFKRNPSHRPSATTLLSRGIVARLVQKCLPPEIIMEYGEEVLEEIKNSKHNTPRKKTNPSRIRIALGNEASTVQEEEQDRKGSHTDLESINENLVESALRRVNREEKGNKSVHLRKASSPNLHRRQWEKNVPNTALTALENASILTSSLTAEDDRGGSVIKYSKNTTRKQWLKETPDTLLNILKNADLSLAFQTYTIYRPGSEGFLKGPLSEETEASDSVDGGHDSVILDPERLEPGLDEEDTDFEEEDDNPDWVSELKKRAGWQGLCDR
The following applies: NEK3; 1 μM; read-out: % control.

For test [6], the target named is T6, panel of 468 kinases (Homo sapiens, UniProt Q13557).
T6 construct: purchased KINOMEscan (ScanMAX) service
The following applies: CAMK2D; 1 μM; read-out: % control.

The target of test [7] is T7, panel of 468 kinases (Homo sapiens, UniProt Q15208).
T7 construct: purchased KINOMEscan (ScanMAX) service
Conditions: NDR1; 1 μM; read-out: % control.

Test [8] deals with T8, panel of 468 kinases (Homo sapiens, UniProt Q8NEV4).
T8 construct: purchased KINOMEscan (ScanMAX) service
The following applies: MYO3A; 1 μM; read-out: % control.

Test [9] has as its target T9, panel of 468 kinases (Homo sapiens, UniProt Q8TD08).
T9 construct: purchased KINOMEscan (ScanMAX) service
T9 sequence (Q8TD08 1-544): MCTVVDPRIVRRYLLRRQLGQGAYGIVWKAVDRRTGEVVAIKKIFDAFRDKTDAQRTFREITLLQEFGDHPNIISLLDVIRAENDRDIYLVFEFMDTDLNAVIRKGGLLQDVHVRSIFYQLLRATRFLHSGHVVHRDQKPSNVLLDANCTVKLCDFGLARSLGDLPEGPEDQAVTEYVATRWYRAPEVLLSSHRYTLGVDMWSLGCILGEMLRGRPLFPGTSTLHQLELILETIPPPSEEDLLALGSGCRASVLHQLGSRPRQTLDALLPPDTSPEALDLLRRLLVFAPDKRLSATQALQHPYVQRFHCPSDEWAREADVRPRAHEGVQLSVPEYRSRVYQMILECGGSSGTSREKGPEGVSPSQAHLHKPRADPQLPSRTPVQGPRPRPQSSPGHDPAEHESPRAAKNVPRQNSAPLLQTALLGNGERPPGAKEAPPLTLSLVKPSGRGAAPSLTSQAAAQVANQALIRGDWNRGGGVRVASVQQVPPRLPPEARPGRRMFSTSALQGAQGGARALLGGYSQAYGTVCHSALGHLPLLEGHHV
Conditions: ERK8; 1 μM; read-out: % control.

The target in test [10] is T10, panel of 468 kinases (Homo sapiens, UniProt Q9NYY3).
T10 construct: purchased KINOMEscan (ScanMAX) service
The following applies: PLK2; 1 μM; read-out: % control.

In test [11] the target is T11, panel of 468 kinases (Homo sapiens, UniProt Q9UKE5).
T11 construct: purchased KINOMEscan (ScanMAX) service
Conditions: TNIK; 1 μM; read-out: % control.

SMILES strings stand for the structures.

T10 sequence (Q9NYY3 whole entry): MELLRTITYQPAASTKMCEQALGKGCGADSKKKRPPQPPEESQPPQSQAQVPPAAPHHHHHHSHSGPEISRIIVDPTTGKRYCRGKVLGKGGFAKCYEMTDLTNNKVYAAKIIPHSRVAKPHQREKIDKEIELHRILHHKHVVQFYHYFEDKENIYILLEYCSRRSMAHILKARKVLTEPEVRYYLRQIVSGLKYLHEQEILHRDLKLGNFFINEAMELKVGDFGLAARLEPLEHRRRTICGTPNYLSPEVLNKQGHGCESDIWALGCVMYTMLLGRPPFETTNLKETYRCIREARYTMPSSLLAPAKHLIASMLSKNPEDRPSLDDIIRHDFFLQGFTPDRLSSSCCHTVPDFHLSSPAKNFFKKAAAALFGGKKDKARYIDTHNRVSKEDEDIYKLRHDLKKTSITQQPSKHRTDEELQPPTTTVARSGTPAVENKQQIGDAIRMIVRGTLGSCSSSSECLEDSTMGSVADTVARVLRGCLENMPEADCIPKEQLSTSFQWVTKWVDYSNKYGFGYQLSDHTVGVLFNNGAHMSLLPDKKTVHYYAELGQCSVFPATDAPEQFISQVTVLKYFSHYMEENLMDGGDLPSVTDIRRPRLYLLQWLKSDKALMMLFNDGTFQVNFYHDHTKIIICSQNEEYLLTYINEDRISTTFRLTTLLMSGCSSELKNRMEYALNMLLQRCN
T1 sequence (O14578 whole entry): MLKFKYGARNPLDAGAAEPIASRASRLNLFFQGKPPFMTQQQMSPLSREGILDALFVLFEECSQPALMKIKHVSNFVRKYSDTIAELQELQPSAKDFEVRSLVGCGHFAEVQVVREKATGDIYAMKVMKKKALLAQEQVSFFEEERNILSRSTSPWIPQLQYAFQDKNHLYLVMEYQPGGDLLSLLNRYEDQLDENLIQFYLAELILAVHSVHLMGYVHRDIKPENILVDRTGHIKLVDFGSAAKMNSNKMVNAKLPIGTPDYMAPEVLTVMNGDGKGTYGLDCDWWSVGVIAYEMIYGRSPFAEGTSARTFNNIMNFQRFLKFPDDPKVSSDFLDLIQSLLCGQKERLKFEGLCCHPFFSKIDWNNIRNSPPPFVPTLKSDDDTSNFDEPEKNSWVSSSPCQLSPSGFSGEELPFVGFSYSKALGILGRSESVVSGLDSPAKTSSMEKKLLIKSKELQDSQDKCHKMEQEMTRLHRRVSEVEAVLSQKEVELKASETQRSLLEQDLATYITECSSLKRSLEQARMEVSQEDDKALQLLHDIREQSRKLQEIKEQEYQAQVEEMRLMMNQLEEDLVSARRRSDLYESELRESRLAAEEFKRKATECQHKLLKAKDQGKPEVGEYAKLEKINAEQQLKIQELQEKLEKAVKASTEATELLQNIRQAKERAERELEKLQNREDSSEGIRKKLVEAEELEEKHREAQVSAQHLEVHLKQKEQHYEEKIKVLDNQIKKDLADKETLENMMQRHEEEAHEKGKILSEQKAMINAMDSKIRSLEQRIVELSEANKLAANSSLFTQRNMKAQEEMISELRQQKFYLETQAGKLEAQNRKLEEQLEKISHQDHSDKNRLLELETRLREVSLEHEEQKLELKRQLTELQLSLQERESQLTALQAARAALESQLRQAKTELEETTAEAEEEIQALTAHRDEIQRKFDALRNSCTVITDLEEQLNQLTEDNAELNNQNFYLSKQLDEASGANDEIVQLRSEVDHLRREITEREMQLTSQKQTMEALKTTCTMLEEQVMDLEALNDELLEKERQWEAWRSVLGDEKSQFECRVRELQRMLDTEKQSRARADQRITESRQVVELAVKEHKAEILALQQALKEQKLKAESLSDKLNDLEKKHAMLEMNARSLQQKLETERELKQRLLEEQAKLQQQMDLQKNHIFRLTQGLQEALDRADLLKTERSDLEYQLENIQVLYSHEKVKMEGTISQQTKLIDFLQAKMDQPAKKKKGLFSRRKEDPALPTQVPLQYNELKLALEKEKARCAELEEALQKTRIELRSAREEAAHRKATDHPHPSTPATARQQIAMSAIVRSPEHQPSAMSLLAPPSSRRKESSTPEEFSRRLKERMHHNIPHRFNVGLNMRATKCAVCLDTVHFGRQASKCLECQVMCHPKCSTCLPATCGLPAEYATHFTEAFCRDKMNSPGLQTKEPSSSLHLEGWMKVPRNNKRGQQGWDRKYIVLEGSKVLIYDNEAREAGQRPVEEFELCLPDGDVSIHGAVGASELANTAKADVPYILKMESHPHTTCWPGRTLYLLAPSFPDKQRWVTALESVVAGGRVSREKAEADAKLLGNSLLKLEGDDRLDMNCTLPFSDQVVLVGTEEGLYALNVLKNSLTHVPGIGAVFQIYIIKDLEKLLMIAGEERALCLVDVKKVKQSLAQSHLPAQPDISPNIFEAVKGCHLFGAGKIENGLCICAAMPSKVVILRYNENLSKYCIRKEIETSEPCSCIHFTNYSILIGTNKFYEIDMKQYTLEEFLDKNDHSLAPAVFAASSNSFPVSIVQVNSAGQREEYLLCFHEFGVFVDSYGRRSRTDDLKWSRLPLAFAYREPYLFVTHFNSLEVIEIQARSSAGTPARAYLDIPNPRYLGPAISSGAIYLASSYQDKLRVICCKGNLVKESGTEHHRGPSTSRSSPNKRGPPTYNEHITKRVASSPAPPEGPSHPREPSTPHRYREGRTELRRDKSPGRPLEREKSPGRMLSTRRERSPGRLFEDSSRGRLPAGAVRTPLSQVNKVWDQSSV
T6 sequence (Q13557 whole entry): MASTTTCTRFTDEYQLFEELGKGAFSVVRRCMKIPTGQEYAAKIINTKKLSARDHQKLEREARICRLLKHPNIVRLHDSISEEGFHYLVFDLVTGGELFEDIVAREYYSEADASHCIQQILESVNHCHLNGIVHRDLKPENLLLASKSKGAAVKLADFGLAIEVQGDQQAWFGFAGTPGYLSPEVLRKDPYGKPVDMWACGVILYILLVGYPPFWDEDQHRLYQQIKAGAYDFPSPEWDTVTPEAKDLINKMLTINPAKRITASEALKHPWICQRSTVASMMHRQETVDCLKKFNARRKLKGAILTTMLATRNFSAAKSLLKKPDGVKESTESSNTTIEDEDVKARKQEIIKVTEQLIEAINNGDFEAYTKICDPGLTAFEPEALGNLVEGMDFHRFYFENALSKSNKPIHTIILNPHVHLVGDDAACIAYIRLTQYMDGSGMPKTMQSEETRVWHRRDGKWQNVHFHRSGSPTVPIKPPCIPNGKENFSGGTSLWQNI
T11 sequence (Q9UKE5 whole entry): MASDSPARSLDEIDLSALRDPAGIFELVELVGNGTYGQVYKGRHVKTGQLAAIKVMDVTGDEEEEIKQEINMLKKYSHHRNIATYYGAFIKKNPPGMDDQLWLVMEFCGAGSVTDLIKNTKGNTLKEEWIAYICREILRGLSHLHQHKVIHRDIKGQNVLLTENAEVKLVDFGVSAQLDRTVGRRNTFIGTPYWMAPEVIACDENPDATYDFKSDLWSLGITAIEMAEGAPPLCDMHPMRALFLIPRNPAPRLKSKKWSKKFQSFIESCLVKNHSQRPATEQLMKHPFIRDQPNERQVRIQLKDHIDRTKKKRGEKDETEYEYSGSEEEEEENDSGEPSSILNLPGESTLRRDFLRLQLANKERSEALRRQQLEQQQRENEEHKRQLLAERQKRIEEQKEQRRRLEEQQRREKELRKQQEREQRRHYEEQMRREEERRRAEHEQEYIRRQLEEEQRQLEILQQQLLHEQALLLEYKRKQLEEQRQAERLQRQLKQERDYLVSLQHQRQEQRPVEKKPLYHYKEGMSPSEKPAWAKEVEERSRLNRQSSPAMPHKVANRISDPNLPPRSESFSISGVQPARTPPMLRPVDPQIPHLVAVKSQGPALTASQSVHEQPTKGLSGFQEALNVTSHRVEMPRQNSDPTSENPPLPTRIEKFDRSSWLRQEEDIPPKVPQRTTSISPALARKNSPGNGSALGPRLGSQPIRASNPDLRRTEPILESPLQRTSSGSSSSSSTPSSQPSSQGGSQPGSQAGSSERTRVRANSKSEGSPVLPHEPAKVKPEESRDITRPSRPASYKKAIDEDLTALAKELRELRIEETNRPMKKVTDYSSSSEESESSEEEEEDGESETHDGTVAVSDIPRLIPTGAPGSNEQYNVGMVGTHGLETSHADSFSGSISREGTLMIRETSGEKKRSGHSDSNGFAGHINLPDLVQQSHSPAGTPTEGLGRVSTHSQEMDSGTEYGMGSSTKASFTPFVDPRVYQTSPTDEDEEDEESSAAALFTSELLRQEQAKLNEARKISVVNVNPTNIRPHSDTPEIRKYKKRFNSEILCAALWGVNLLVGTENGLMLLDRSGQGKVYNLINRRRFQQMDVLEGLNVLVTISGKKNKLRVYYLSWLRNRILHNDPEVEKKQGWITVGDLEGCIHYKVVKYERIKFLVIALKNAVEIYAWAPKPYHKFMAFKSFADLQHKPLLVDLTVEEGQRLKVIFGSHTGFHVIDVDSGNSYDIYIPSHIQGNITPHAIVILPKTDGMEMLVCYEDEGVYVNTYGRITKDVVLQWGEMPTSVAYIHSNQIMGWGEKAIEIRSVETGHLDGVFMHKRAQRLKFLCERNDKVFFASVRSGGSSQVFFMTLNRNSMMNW
T7 sequence (Q15208 whole entry): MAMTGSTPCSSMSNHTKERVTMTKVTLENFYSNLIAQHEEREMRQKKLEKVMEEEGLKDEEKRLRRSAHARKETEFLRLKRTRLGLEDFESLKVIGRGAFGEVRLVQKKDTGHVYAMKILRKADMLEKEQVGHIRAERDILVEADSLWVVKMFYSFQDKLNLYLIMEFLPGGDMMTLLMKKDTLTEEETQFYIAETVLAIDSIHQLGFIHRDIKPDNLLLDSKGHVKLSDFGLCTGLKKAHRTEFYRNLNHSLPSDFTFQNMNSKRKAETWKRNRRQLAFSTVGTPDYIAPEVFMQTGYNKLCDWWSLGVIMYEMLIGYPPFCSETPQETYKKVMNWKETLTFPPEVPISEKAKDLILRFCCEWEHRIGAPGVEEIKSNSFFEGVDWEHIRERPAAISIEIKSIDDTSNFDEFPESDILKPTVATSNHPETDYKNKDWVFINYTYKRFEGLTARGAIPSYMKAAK

Consider `CNc1nc(Nc2ccc(S(=O)(=O)N3CCC(N4CCOCC4)CC3)cc2OC)nc2[nH]cc(Cl)c12` [Compound 12, 5-chloro-N2-(2-methoxy-4-((4-morpholinopiperidin-1-yl)sulfonyl)phenyl)-N4-methyl-7H-pyrrolo[2,3-d]pyrimidine-2,4-diamine], for which the remaining binding at 1 µM on panel of 468 kinases [1] was determined as 85%; on panel of 468 kinases [2], 60%; on panel of 468 kinases [3], 100%; at panel of 468 kinases [4], 100%; at panel of 468 kinases [5], 51%; at panel of 468 kinases [6], 96%. The remaining binding at 1 µM is 83% at panel of 468 kinases [7]; 100% on panel of 468 kinases [8]; 100% on panel of 468 kinases [9]; 80% at panel of 468 kinases [10]; 92% at panel of 468 kinases [11].

Turning to `CNc1nc(Nc2ccc(P3(=O)CCN(C4CCOCC4)CC3)cc2OC)nc2[nH]cc(Cl)c12` [Compound 77, 4-(4-((5-chloro-4-(methylamino)-7H-pyrrolo[2,3-d]pyrimidin-2-yl)amino)-3-methoxyphenyl)-1-(tetrahydro-2H-pyran-4-yl)-1,4-azaphosphinane 4-oxide], the remaining binding at 1 µM was determined as 93% on panel of 468 kinases [1]; 61% at panel of 468 kinases [2]; 96% on panel of 468 kinases [3]; 100% on panel of 468 kinases [4]; 52% on panel of 468 kinases [5]; 89% on panel of 468 kinases [6]. The remaining binding at 1 µM on panel of 468 kinases [7] came out at 83%; on panel of 468 kinases [8], 62%; at panel of 468 kinases [9], 100%; on panel of 468 kinases [10] it was 75%; at panel of 468 kinases [11], 72%.

Regarding `CNc1nc(Nc2ccc(C(=O)N3CCC(N4CCOCC4)CC3)c3c2OCO3)nc2[nH]cc(Cl)c12` [Compound 75, (7-((5-chloro-4-(methylamino)-7H-pyrrolo[2,3-d]pyrimidin-2-yl)amino)benzo[d][1,3]dioxol-4-yl)(4-morpholinopiperidin-1-yl)methanone], the remaining binding at 1 µM was determined as 35% at panel of 468 kinases [1]; 49% on panel of 468 kinases [2]; 23% on panel of 468 kinases [3]; 73% on panel of 468 kinases [4]; 54% on panel of 468 kinases [5]; 89% at panel of 468 kinases [6]. For the same molecule, the remaining binding at 1 µM at panel of 468 kinases [7] stood at 90%; at panel of 468 kinases [8], 98%; at panel of 468 kinases [9], 100%; on panel of 468 kinases [10], 82%; on panel of 468 kinases [11], 39%.
